# Laboratory results from patent publication US6737383B1, “Herbicidal oxadiazolidines” (priority 1999, dated 2004).
# Tests used:
# [1] = tested on: bedstraw; test: Test B pre/postemergence bedstraw; assay type: in vivo, Galium aparine
# How it was run: (§1)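 Herbicidal effect was estimated by eye on a ten-point control scale after plants spent twelve to sixteen days in a greenhouse following soil or foliar treatment. Foliar sprays targeted plants at one to four leaves; all doses were formulated in a non-phytotoxic solvent with surfactant.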
# [2] = tested on: blackgrass; test: Test B pre/postemergence blackgrass; assay type: in vivo, Alopecurus myosuroides
# How it was run: as §1
# [3] = tested on: surinam grass; test: Test B pre/postemergence surinam grass; assay type: in vivo, Brachiaria decumbens
# How it was run: as §1
# [4] = tested on: cocklebur; test: Test B pre/postemergence cocklebur; assay type: in vivo, Xanthium strumarium
# How it was run: as §1
# [5] = tested on: giant foxtail; test: Test B pre/postemergence giant foxtail; assay type: in vivo, Setaria faberii
# How it was run: as §1
# [6] = tested on: morningglory; test: Test B pre/postemergence morningglory; assay type: in vivo, Ipomoea hederacea
# How it was run: as §1
# [7] = tested on: pigweed; test: Test B pre/postemergence pigweed; assay type: in vivo, Amaranthus retroflexus
# How it was run: as §1
# [8] = tested on: rape; test: Test B pre/postemergence rape; assay type: in vivo, Brassica napus
# How it was run: as §1
# [9] = tested on: soybean; test: Test B pre/postemergence soybean; assay type: in vivo, Glycine max
# How it was run: as §1
# [10] = tested on: sugar beet; test: Test B pre/postemergence sugar beet; assay type: in vivo, Beta vulgaris
# How it was run: as §1
# [11] = tested on: wheat; test: Test B pre/postemergence wheat; assay type: in vivo, Triticum aestivum
# How it was run: as §1
# [12] = tested on: wild oat; test: Test B pre/postemergence wild oat; assay type: in vivo, Avena fatua
# How it was run: as §1
# [13] = tested on: purple nutsedge; test: Test B pre/postemergence purple nutsedge; assay type: in vivo, Cyperus rotundus
# How it was run: as §1
# [14] = tested on: smallflower flatsedge; test: Test B flood test smallflower flatsedge; assay type: in vivo, Cyperus difformis
# How it was run: (§2)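 Flood test on plants grown to the 2-leaf stage; treated plants kept in greenhouse twelve to sixteen days, then visually rated against controls on a 0 (no effect) to 10 (complete control) scale.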
# [15] = tested on: duck salad; test: Test B flood test duck salad; assay type: in vivo, Heteranthera limosa
# How it was run: as §2
# [16] = tested on: bamyardgrass; test: Test B flood test barnyardgrass; assay type: in vivo, Echinochloa crus-galli
# How it was run: as §2
# [17] = Preemergence, Rate 62 g/ha, scale of 0 to 10 where 0 is no effect and 10 is complete control
# [18] = Preemergence, Rate 125 g/ha, 0 is no effect, 10 is complete control
# [19] = Preemergence, Rate 250 g/ha, scale 0 to 10, 0 is no effect, 10 is complete control
# [20] = Preemergence, Rate 500 g/ha, scale of 0 to 10 where 0 is no effect and 10 is complete control
# [21] = Rate 62 g/ha, Postemergence, scale of 0 to 10 where 0 is no effect and 10 is complete control
# [22] = Rate 125 g/ha, Postemergence, scale 0 to 10
# [23] = Rate 500 g/ha, Postemergence, scale 0 to 10
# [24] = Rate 62 g/ha, headed Pre-emergence (flood test species), scale 0 to 10 (0 no effect, 10 complete control)
# [25] = Rate 125 g/ha, Pre-emergence, flood test species, scale 0 to 10 where 0 is no effect and 10 is complete control
# [26] = Rate 250 g/ha, Pre-emergence, flood-test species, scale 0 to 10, 0 is no effect, 10 is complete control
# [27] = Rate 500 g/ha, headed Pre-emergence (flood test species), scale 0 to 10 (0 no effect, 10 complete control)
smiles,measurement,setting,value
CSc1ccc(N(C(=O)n2oc(=O)n(-c3ccccc3C)c2=O)C(C)C)cc1 [Compound 205],Bedstraw plant response rating,[1]; [17],0
same,Bedstraw plant response rating (0 to 10 scale),[1]; [18],0
same,Bedstraw plant response rating,[1]; [19],0
same,"Plant response rating, Bedstraw",[1]; [20],0
same,Bedstraw plant response rating,[1]; [21],0
same,Bedstraw plant response rating,[1]; [22],0
same,"Plant response rating (0 to 10; 0 is no effect, 10 is complete control), Bedstraw","[1]; Rate 250 g/ha, Postemergence",0
same,Bedstraw plant response rating,[1]; [23],0
same,Blackgrass plant response rating,[2]; [17],0
same,Blackgrass plant response rating (0 to 10 scale),[2]; [18],0
same,Blackgrass plant response rating,[2]; [19],0
same,"Plant response rating, Blackgrass",[2]; [20],0
same,Blackgrass plant response rating,[2]; [21],0
same,Blackgrass plant response rating,[2]; [22],0
same,"Plant response rating (0 to 10; 0 is no effect, 10 is complete control), Blackgrass","[2]; Rate 250 g/ha, Postemergence",0
same,Blackgrass plant response rating,[2]; [23],0
same,B. signalgrass plant response rating,[3]; [17],0
same,B. signalgrass plant response rating (0 to 10 scale),[3]; [18],0
same,B. signalgrass plant response rating,[3]; [19],0
same,"Plant response rating, B. signalgrass",[3]; [20],0
same,B. signalgrass plant response rating,[3]; [21],0
same,B. signalgrass plant response rating,"[3]; Rate 125 g/ha, Postemergence, scale 0 (no effect) to 10 (complete control)",0
same,"Plant response rating, B. signalgrass","[3]; Rate 250 g/ha, Postemergence, scale 0 to 10, 0 is no effect, 10 is complete control",0
same,B. signalgrass plant response rating,"[3]; Rate 500 g/ha, Postemergence, scale 0 to 10, 0 no effect, 10 complete control",0
same,Cocklebur plant response rating,[4]; [17],0
same,Cocklebur plant response rating (0 to 10 scale),[4]; [18],0
same,Cocklebur plant response rating,[4]; [19],0
same,"Plant response rating, Cocklebur",[4]; [20],0
same,Cocklebur plant response rating,[4]; [21],0
same,Cocklebur plant response rating,[4]; [22],1
same,"Plant response rating (0 to 10; 0 is no effect, 10 is complete control), Cocklebur","[4]; Rate 250 g/ha, Postemergence",1
same,Cocklebur plant response rating,[4]; [23],2
same,Giant foxtail plant response rating,[5]; [17],0
same,Giant foxtail plant response rating (0 to 10 scale),[5]; [18],0
same,Giant foxtail plant response rating,[5]; [19],0
same,"Plant response rating, Giant foxtail",[5]; [20],3
same,Giant foxtail plant response rating,[5]; [21],0
same,Giant foxtail plant response rating,[5]; [22],0
same,"Plant response rating (0 to 10; 0 is no effect, 10 is complete control), Giant foxtail","[5]; Rate 250 g/ha, Postemergence",0
same,Giant foxtail plant response rating,[5]; [23],0
same,Morningglory plant response rating,[6]; [17],0
same,Morningglory plant response rating (0 to 10 scale),[6]; [18],0
same,Morningglory plant response rating,[6]; [19],0
same,"Plant response rating, Morningglory",[6]; [20],0
same,Morningglory plant response rating,[6]; [21],0
same,Morningglory plant response rating,[6]; [22],0
same,"Plant response rating (0 to 10; 0 is no effect, 10 is complete control), Morningglory","[6]; Rate 250 g/ha, Postemergence",1
same,Morningglory plant response rating,[6]; [23],2
same,Redroot pigweed plant response rating,[7]; [17],0
same,Redroot pigweed plant response rating (0 to 10 scale),[7]; [18],0
same,Redroot pigweed plant response rating,[7]; [19],0
same,"Plant response rating, Redroot pigweed",[7]; [20],0
same,Redroot pigweed plant response rating,[7]; [21],0
same,Redroot pigweed plant response rating,[7]; [22],0
same,"Plant response rating (0 to 10; 0 is no effect, 10 is complete control), Redroot pigweed","[7]; Rate 250 g/ha, Postemergence",0
same,Redroot pigweed plant response rating,[7]; [23],0
same,Rape plant response rating,[8]; [17],0
same,Rape plant response rating (0 to 10 scale),[8]; [18],0
same,Rape plant response rating,[8]; [19],0
same,"Plant response rating, Rape",[8]; [20],0
same,Rape plant response rating,[8]; [21],0
same,Rape plant response rating,[8]; [22],0
same,"Plant response rating (0 to 10; 0 is no effect, 10 is complete control), Rape","[8]; Rate 250 g/ha, Postemergence",0
same,Rape plant response rating,[8]; [23],0
same,Soybean plant response rating,[9]; [17],0
same,Soybean plant response rating (0 to 10 scale),[9]; [18],0
same,Soybean plant response rating,[9]; [19],0
same,"Plant response rating, Soybean",[9]; [20],0
same,Soybean plant response rating,[9]; [21],0
same,Soybean plant response rating,[9]; [22],1
same,"Plant response rating (0 to 10; 0 is no effect, 10 is complete control), Soybean","[9]; Rate 250 g/ha, Postemergence",2
same,Soybean plant response rating,[9]; [23],2
same,Sugarbeets plant response rating,[10]; [17],0
same,Sugarbeets plant response rating (0 to 10 scale),[10]; [18],0
same,Sugarbeets plant response rating,[10]; [19],0
same,"Plant response rating, Sugarbeets",[10]; [20],0
same,Sugarbeets plant response rating,[10]; [21],0
same,Sugarbeets plant response rating,[10]; [22],0
same,"Plant response rating (0 to 10; 0 is no effect, 10 is complete control), Sugarbeets","[10]; Rate 250 g/ha, Postemergence",0
same,Sugarbeets plant response rating,[10]; [23],0
same,Wheat plant response rating,[11]; [17],0
same,Wheat plant response rating,[11]; [19],0
same,"Plant response rating, Wheat",[11]; [20],0
same,Wheat plant response rating,[11]; [21],0
same,Wheat plant response rating,[11]; [22],0
same,"Plant response rating (0 to 10; 0 is no effect, 10 is complete control), Wheat","[11]; Rate 250 g/ha, Postemergence",0
same,Wild oats plant response rating,[12]; [17],0
same,Wild oats plant response rating,[12]; [19],0
same,"Plant response rating, Wild oats",[12]; [20],0
same,Wild oats plant response rating,[12]; [21],0
same,Wild oats plant response rating,[12]; [22],0
same,"Plant response rating (0 to 10; 0 is no effect, 10 is complete control), Wild oats","[12]; Rate 250 g/ha, Postemergence",0
same,Nutsedge plant response rating,[13]; [19],0
same,Nutsedge plant response rating,[13]; [22],0
same,Nutsedge plant response rating,[13]; [23],0
same,S. Flatsedge plant response rating,[14]; [24],0
same,S. Flatsedge plant response rating,[14]; [25],0
same,S. Flatsedge plant response rating,[14]; [26],0
same,S. Flatsedge plant response rating,"[14]; Rate 500 g/ha, Pre-emergence, flood test species, scale 0 to 10 (0 no effect, 10 complete control)",0
same,Ducksalad plant response rating,[15]; [24],0
same,Ducksalad plant response rating,[15]; [25],0
same,Ducksalad plant response rating,[15]; [26],0
same,"Plant response rating, Ducksalad",[15]; [27],0
same,Barnyardgrass plant response rating,[16]; [24],0
same,Barnyardgrass plant response rating,[16]; [25],0
same,Barnyardgrass plant response rating,[16]; [26],0
same,"Plant response rating, Barnyardgrass",[16]; [27],0
